{"source": "paper PMC10028264", "about": "“Synergistic antifungal interaction of N-(butylcarbamothioyl) benzamide and amphotericin B against Cryptococcus neoformans” (Frontiers in Microbiology, 2023)", "assay_type_in_all_cases": "cell-based", "key": {"Cryptococcus neoformans [1]": {"tested_on": "Cryptococcus neoformans", "assay": "Broth microdilution MIC and MFC on planktonic cells", "method": "Cryptococcus neoformans ATCC 34872 (serotype A), C. neoformans ATCC 66031 (serotype D), and four C. neoformans human isolates (Table 1) belonging to the microbial collection of the Laboratório de Biologia Molecular de Microrganismos of Universidade Estadual de Londrina (UEL), Londrina, Paraná, Brazil, were included in the present study. Yeasts were cultivated in Sabouraud dextrose (SD) agar at 37°C for 48 h and stored at 4°C. For the experiments, five colonies were transferred to SD broth and incubated under the same conditions. Cells were then centrifuged (10,000 × g for 1 min) and resuspended in 0.85% NaCl solution (saline) to achieve turbidity equivalent to 0.5 McFarland standard using the DensiCHEK™ PLUS colorimeter (bioMérieux), which corresponds to approximately 1.0–2.0 × 10^6 colony forming units (CFUs)/mL (standard fungal suspension). The fungal suspension was diluted in a culture medium to achieve the inoculum used in each assay. The study protocol was in accordance with the ethics committee of the UEL. The patients signed a written informed consent form agreeing with this publication (CAAE number 57452322.2.0000.5231).\nMinimal inhibitory concentrations (MIC) of BTU-01 and AmB were determined by the broth microdilution method ([CLSI, 2017]). An inoculum (100 μL) of yeast cells (0.5–2.5 × 10^3 CFU/mL) was added into the wells of a U-bottom 96-well microtiter plate (Techno Plastic Products, Switzerland) containing twofold serial dilutions of BTU-01 (1.95–1000.0 μg/mL) and AmB (0.031–16.0 μg/mL) in RPMI-MOPS. Wells containing medium or medium plus DMSO 1% with or without the fungal cells were used as growth and sterility controls, respectively. Candida parapsilosis ATCC 22019 was used as quality control. […] The results of AmB were interpreted using the epidemiological cut-off values proposed in [Espinel-Ingroff et al. (2012)]. To determine the minimal fungicidal concentration (MFC), 10 μL from the wells without visible growth was transferred onto SD agar ([Espinel-Ingroff et al., 2002]), and incubated at 37°C for 48 h. The MFC was determined as the lowest concentration capable of reducing the CFU counts to zero."}, "Cryptococcus neoformans [2]": {"tested_on": "Cryptococcus neoformans", "assay": "Time-kill kinetics", "settings": "for difference in CFU counts compared to untreated control cells: BTU-01 MIC, 48 h", "method": "For all assays, fungal cells were incubated in RPMI-MOPS (except when specified) supplemented with BTU-01 and AmB alone at MIC and MFC values or combined at the synergistic MIC values. Untreated fungal cells were considered as control. The time-kill assay ([CLSI, 1999]) was performed to analyze the rate of fungal killing in the presence of the compounds alone or combined. The fungal cells (1.0 × 10^3 CFU/mL) were added to the wells of U-bottom 96-wells microtiter plates containing RPMI-MOPS supplemented with BTU-01 and/or AmB and were incubated at 37°C. At determined time points (0, 24, and 48 h), 10 μL was removed from each well and 10-fold serial diluted in saline. A 10-μL aliquot of each dilution was inoculated onto SD agar and the CFU counts were carried out after incubation at 37°C for 48 h. Averaged data were plotted as log10 CFU/mL vs. time (h). The fungicidal effect of the compounds was defined as a 99.9% (3 log10) reduction in CFU/mL of the starting inoculum ([[…] et al., 1998])."}, "[3]": {"tested_on": "Cryptococcus neoformans biofilm", "assay": "Antifungal activity on sessile cells, 72-h biofilm, MTT reduction (SMIC80)", "method": "The capacity of C. neoformans strains to form biofilm was evaluated on flat-bottomed 96-well polystyrene plates (Techno Plastic Products, Switzerland), as described by [Martinez and Casadevall (2006)]. Thus, the biofilms were formed in SD broth statically at 37°C for 24, 48, 72, 96, and 120 h, with an inoculum of 1.0 × 10^7 CFU/mL. After each incubation period, the viability of sessile cells was evaluated using the 3-(4,5-dimethylthiazol-2-yl)-2,5-diphenyltetrazolium bromide (MTT, Merck, Brazil) reduction assay according to the manufacturer’s recommendations. The assays were carried out in quintuplicate and performed on two separate occasions.\nTo evaluate the antifungal activity of the compounds on sessile cells, biofilms were formed for 72 h, washed with saline, and 200-μL aliquots of RPMI-MOPS containing different concentrations of BTU-01 (31.25–1000.0 μg/mL) and/or AmB (0.007–16.0 μg/mL) were added for determining the SMIC (Sessile Minimal Inhibitory Concentration). Untreated and treated biofilms were incubated at 37°C for further 24 h, and then washed with saline. The biofilm viability was analyzed by the MTT reduction assay as described above. The SMICs of BTU-01 and AmB alone and combined were determined by the lowest concentration capable of inhibiting 80% (SCIM80) of the viability of sessile cells compared to the untreated controls. The checkerboard assays were performed to analyze the effect of the combination with BTU-01 and AmB on 72-h biofilms. The results of the combination were interpreted using the FICI as described previously."}, "[4]": {"tested_on": "Cryptococcus neoformans biofilm", "assay": "Checkerboard assay on 72-h biofilms", "settings": "72-h biofilm", "method": "The antifungal effect of BTU-01 combined with AmB was evaluated using the checkerboard broth microdilution assay, according to [Scott et al. (1995)]. […] The Fractional Inhibitory Concentration (FIC) of each compound was determined by the ratio of the MIC obtained when the compounds were tested in combination and the MIC of the compounds tested individually. […] Untreated and treated biofilms were incubated at 37°C for further 24 h, and then washed with saline. The biofilm viability was analyzed by the MTT reduction assay as described above. […] The checkerboard assays were performed to analyze the effect of the combination with BTU-01 and AmB on 72-h biofilms. The results of the combination were interpreted using the FICI as described previously."}, "[5]": {"settings": "Cryptococcus neoformans, 72 h, C. neoformans 1172; planktonic cells; 72 h; read-out: MIC"}, "[6]": {"settings": "Cryptococcus neoformans, 72 h, C. neoformans 90889; planktonic cells; 72 h; read-out: MIC"}, "[7]": {"settings": "Cryptococcus neoformans, 72 h, C. neoformans CN01; planktonic cells; 72 h; read-out: MIC"}, "[8]": {"settings": "Cryptococcus neoformans, 72 h, C. neoformans CN12; planktonic cells; 72 h; read-out: MIC"}, "[9]": {"settings": "Cryptococcus neoformans, ATCC34872, 72 h, C. neoformans ATCC 34872; planktonic cells; 72 h; read-out: MIC"}, "[10]": {"settings": "Cryptococcus neoformans, ATCC66031, 72 h, C. neoformans ATCC 66031; planktonic cells; 72 h; read-out: MIC"}, "[11]": {"settings": "C. neoformans 1172, treated 24 h"}, "[12]": {"settings": "C. neoformans ATCC 34872, treated 24 h"}}, "note": "Read-outs that look alike come from different tables or passages of the source.", "data": [{"molecule": "C[C@@H]1[C@H](O)[C@@H](C)/C=C/C=C/C=C/C=C/C=C/C=C/C=C/[C@H](O[C@@H]2O[C@H](C)[C@@H](O)[C@H](N)[C@@H]2O)C[C@@H]2O[C@](O)(C[C@@H](O)C[C@@H](O)[C@H](O)CC[C@@H](O)C[C@@H](O)CC(=O)O[C@H]1C)C[C@H](O)[C@H]2C(=O)O", "note": "[Amphotericin B, amphotericin B]", "values": [{"measurement": "MIC", "setting": "Cryptococcus neoformans [1]; C. neoformans 1172; planktonic cells; 72 h; listed as AmB", "value": 0.25, "unit": "µg/mL"}, {"measurement": "MFC", "setting": "Cryptococcus neoformans [1]; C. neoformans 90889; planktonic cells; 72 h", "value": 0.5, "unit": "µg/mL"}, {"measurement": "MIC", "setting": "Cryptococcus neoformans [1]; C. neoformans ATCC 34872; planktonic cells; 72 h; listed as AmB", "value": 0.25, "unit": "µg/mL"}, {"measurement": "MFC", "setting": "Cryptococcus neoformans [1]; C. neoformans CN01; planktonic cells; 72 h", "value": 0.5, "unit": "µg/mL"}, {"measurement": "MFC", "setting": "Cryptococcus neoformans [1]; C. neoformans CN12; planktonic cells; 72 h", "value": 0.5, "unit": "µg/mL"}, {"measurement": "MIC", "setting": "Cryptococcus neoformans [1]; [5]", "value": 0.25, "unit": "µg/mL"}, {"measurement": "MIC", "setting": "Cryptococcus neoformans [1]; [6]", "value": 0.25, "unit": "µg/mL"}, {"measurement": "MIC", "setting": "Cryptococcus neoformans [1]; [7]", "value": 0.125, "unit": "µg/mL"}, {"measurement": "MIC", "setting": "Cryptococcus neoformans [1]; [8]", "value": 0.125, "unit": "µg/mL"}, {"measurement": "MIC", "setting": "Cryptococcus neoformans [1]; [9]", "value": 0.25, "unit": "µg/mL"}, {"measurement": "MFC", "setting": "Cryptococcus neoformans [1]; Cryptococcus neoformans, ATCC34872; C. neoformans ATCC 34872; planktonic cells; 72 h; read-out: MFC", "value": 0.5, "unit": "µg/mL"}, {"measurement": "MIC", "setting": "Cryptococcus neoformans [1]; [10]", "value": 0.125, "unit": "µg/mL"}, {"measurement": "MFC", "setting": "Cryptococcus neoformans [1]; Cryptococcus neoformans, ATCC66031; C. neoformans ATCC 66031; planktonic cells; 72 h; read-out: MFC", "value": 0.5, "unit": "µg/mL"}, {"measurement": "MFC", "setting": "Cryptococcus neoformans [1]; Cryptococcus neoformans; C. neoformans 1172; planktonic cells; 72 h; read-out: MFC", "value": 0.5, "unit": "µg/mL"}, {"measurement": "susceptibility of the strains to the antifungal", "setting": "Cryptococcus neoformans [1]; epidemiological cut-off values of Espinel-Ingroff et al., 2012; all strains", "value": "susceptible"}, {"measurement": "MFC, range over all C. neoformans strains", "setting": "Cryptococcus neoformans [1]; planktonic cells; all six strains", "value": 0.5, "unit": "µg/mL"}, {"measurement": "CFU counts", "setting": "Cryptococcus neoformans [2]; AmB MFC, after 24 h-incubation", "value": "no CFU counts were detected"}, {"measurement": "SMIC80", "setting": "[3]; [11]", "value": 1.0, "unit": "µg/mL"}, {"measurement": "SMIC80", "setting": "[3]; [12]", "value": 1.0, "unit": "µg/mL"}, {"measurement": "reduction in SMIC80 value in combination", "setting": "[4]; 1172 strain", "value": 8, "unit": "fold"}, {"measurement": "reduction in SMIC80 value in combination", "setting": "[4]; ATCC 34872", "value": 8, "unit": "fold"}]}, {"molecule": "CCCCNC(=S)NC(=O)c1ccccc1", "note": "[BTU-01, N-(butylcarbamothioyl) benzamide]", "values": [{"measurement": "MFC", "setting": "Cryptococcus neoformans [1]; Cryptococcus neoformans, 72 h, C. neoformans 1172; planktonic cells; 72 h; read-out: MFC", "value": 125, "unit": "µg/mL"}, {"measurement": "MIC", "setting": "Cryptococcus neoformans [1]; [5]", "value": 62.5, "unit": "µg/mL"}, {"measurement": "MFC", "setting": "Cryptococcus neoformans [1]; Cryptococcus neoformans, 72 h, C. neoformans 90889; planktonic cells; 72 h; read-out: MFC", "value": 250, "unit": "µg/mL"}, {"measurement": "MIC", "setting": "Cryptococcus neoformans [1]; [6]", "value": 62.5, "unit": "µg/mL"}, {"measurement": "MFC", "setting": "Cryptococcus neoformans [1]; Cryptococcus neoformans, 72 h, C. neoformans CN01; planktonic cells; 72 h; read-out: MFC", "value": 500, "unit": "µg/mL"}, {"measurement": "MIC", "setting": "Cryptococcus neoformans [1]; [7]", "value": 62.5, "unit": "µg/mL"}, {"measurement": "MFC", "setting": "Cryptococcus neoformans [1]; Cryptococcus neoformans, 72 h, C. neoformans CN12; planktonic cells; 72 h; read-out: MFC", "value": "> 1000", "unit": "µg/mL"}, {"measurement": "MIC", "setting": "Cryptococcus neoformans [1]; [8]", "value": 31.2, "unit": "µg/mL"}, {"measurement": "MFC", "setting": "Cryptococcus neoformans [1]; Cryptococcus neoformans, ATCC34872, 72 h, C. neoformans ATCC 34872; planktonic cells; 72 h; read-out: MFC", "value": 125, "unit": "µg/mL"}, {"measurement": "MIC", "setting": "Cryptococcus neoformans [1]; [9]", "value": 62.5, "unit": "µg/mL"}, {"measurement": "MFC", "setting": "Cryptococcus neoformans [1]; Cryptococcus neoformans, ATCC66031, 72 h, C. neoformans ATCC 66031; planktonic cells; 72 h; read-out: MFC", "value": 125, "unit": "µg/mL"}, {"measurement": "MIC", "setting": "Cryptococcus neoformans [1]; [10]", "value": 62.5, "unit": "µg/mL"}, {"measurement": "nature of the antifungal effect", "setting": "Cryptococcus neoformans [1]; from MIC and MFC; all strains", "value": "fungistatic effect"}, {"measurement": "difference in CFU counts compared to untreated control cells", "setting": "Cryptococcus neoformans [2]; 1172", "value": 3, "unit": "log10"}, {"measurement": "difference in CFU counts compared to untreated control cells", "setting": "Cryptococcus neoformans [2]; ATCC 34872", "value": 2, "unit": "log10"}, {"measurement": "reduction of CFU compared to untreated control", "setting": "Cryptococcus neoformans [2]; treatment with MFC, 1172 isolate", "value": 5, "unit": "log CFU"}, {"measurement": "CFU counts", "setting": "Cryptococcus neoformans [2]; treatment with MFC, ATCC 34872", "value": "zero CFU counts"}, {"measurement": "SMIC80", "setting": "[3]; [11]", "value": "> 1000.0", "unit": "µg/mL"}, {"measurement": "SMIC80", "setting": "[3]; [12]", "value": 125.0, "unit": "µg/mL"}, {"measurement": "reduction in SMIC80 value in combination", "setting": "[4]; 1172 strain", "value": 128, "unit": "fold"}, {"measurement": "reduction in SMIC80 value in combination", "setting": "[4]; ATCC 34872", "value": 16, "unit": "fold"}]}]}
